Test results reported in US20240317735A1, “HYDROISOQUINOLINE OR HYDRONAPHTHYRIDINE COMPOUNDS FOR THE TREATMENT OF AUTOIMMUNE DISEASE” (Hoffmann-La Roche Inc., priority 2020, published 2024).

Experiments:
[1] = Human microsome stability assay; format: in vitro ADME; details: for Clearance of Human microsome: 1 μM test compound, 0.5 mg/mL liver microsomal protein, 37° C., pH 7.4; for human liver microsome stability (in words): qualitative statement
Protocol: The human microsomal stability assay is used for early assessment of metabolic stability of a test compound in human liver microsomes.
Human liver microsomes (Cat. NO.: 452117, Corning, USA; Cat. NO.: H2610, Xenotech, USA) were preincubated with test compound for 10 minutes at 37° C. in 100 mM potassium phosphate buffer, pH 7.4. The reactions were initiated by adding NADPH regenerating system. The final incubation mixtures contained 1 μM test compound, 0.5 mg/mL liver microsomal protein, 1 mM MgCl2, 1 mM NADP, 1 unit/mL isocitric dehydrogenase and 6 mM isocitric acid in 100 mM potassium phosphate buffer, pH 7.4. After incubation times of 0, 3, 6, 9, 15 and 30 minutes at 37° C., 300 μL of cold acetonitrile (including internal standard) was added to 100 μL incubation mixture to terminate the reaction. Following precipitation and centrifugation, the amount of compound remaining in the samples were determined by LC-MS/MS. Controls of no NADPH regenerating system at zero and 30 minutes were also prepared and analyzed.

TLR9 = target: T1, TLR9 (Homo sapiens, UniProt Q9NR96); details: qualitative statement on compounds of WO2018047081; cited from earlier work
T1 sequence (Q9NR96 26-1032): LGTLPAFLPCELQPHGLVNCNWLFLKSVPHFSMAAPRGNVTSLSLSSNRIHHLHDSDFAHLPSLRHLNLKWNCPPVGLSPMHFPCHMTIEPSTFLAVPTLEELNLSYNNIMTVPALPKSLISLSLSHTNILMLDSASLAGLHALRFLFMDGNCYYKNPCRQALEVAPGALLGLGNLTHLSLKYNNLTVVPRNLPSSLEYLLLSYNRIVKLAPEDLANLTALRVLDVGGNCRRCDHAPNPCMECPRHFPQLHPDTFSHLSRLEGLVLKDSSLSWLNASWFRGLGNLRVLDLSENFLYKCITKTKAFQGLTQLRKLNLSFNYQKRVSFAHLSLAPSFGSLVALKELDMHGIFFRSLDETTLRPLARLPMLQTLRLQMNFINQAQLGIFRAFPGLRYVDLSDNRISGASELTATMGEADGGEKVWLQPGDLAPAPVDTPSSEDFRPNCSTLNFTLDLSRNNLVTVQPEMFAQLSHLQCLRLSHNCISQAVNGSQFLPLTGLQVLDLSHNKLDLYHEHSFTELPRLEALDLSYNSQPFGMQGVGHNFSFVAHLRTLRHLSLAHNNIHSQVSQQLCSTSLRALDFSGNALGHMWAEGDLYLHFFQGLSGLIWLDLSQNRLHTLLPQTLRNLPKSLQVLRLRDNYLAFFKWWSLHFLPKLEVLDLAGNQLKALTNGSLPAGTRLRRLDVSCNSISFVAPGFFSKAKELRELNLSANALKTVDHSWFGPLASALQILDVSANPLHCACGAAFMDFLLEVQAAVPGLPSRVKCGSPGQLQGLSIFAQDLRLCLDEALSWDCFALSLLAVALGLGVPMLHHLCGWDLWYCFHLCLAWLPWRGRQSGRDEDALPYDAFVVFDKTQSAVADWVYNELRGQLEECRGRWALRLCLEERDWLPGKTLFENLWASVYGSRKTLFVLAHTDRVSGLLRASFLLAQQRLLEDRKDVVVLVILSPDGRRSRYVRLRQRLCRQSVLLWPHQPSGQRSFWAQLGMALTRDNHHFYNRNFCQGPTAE

Row | Clearance of Human microsome [1] | human liver microsome stability (in words) [1] | SMILES | TLR9 activity (in words) (TLR9)
1 | 6.2 mL/min/kg | – | C[C@H]1CN(c2ccnc3c2cnn3C)Cc2ccc(N3CC[N+](C)(C)CC3)cc21.[Cl-] [Example 39, (4R)-6-(4,4-dimethylpiperazin-4-ium-1-yl)-4-methyl-2-(1-methylpyrazolo[3,4-b]pyridin-4-yl)-3,4-dihydro-1H-isoquinoline chloride] | –
2 | 16.3 mL/min/kg | poor human liver microsome stability | Cc1cc(N2CCc3c(c(C)nn3CC34CCC(NC(=O)[C@@H]5COCCN5)(CC3)CC4)C2)c2cnn(C)c2n1 [Example N8, reference compound] | much lower TLR9 activity
3 | 18.2 mL/min/kg | poor human liver microsome stability | Cc1cc(N2CCc3c(c(C)nn3CC34CCC(N(C)C5CCC5)(CC3)CC4)C2)c2cnn(C)c2n1 [Example N79, reference compound] | best TLR9 activity
4 | 6.2 mL/min/kg | – | C[C@H]1CN(c2ccnc3c2cnn3C)Cc2ccc(N3C[C@@H](N)[C@](C)(O)C3)cc21 [Example 36, (3R,4R)-4-amino-3-methyl-1-[(4R)-4-methyl-2-(1-methylpyrazolo[3,4-b]pyridin-4-yl)-3,4-dihydro-1H-isoquinolin-6-yl]pyrrolidin-3-ol] | –
